This note sets out measurements from patent US9012481B2, “Benzoarylureido compounds, and composition for prevention or treatment of neurodegenerative brain disease containing the same” (Korea Institute of Science and Technology, priority 2009, dated 2015).

As a reminder, the viability is a read-out of living cells in per cent, often relative to untreated cells. As a reminder, the melting point is the temperature, or range, at which the solid turns liquid.

Where two headings read alike, the source gives them in different places.

One data set deals with BV-2 cells. Briefly: Cell viability (MTT analysis) of beta-amyloid treated BV-2 cells. The format is cell-based. The settings on record: Mus musculus, BV-2 cells, average of three experiments. The protocol:
Beta-amyloid (Aβ25-35, Sigma Chemical Co., St. Louis, Mo., USA) was diluted with aseptic desalted water and preservative solution (1 mM, GIBCO), and kept in aliquots at −70° C. To the treatment of beta-amyloid, beta-amyloid preservative solution was diluted to desired concentrations in a treatment medium (DMEM, GIBCO). The reagents were newly provided as a preservative solution (10 mM) under DMSO (dimethylsulfoxide), and diluted in treatment medium to desired concentrations.
BV-2 microglia cells (allotted from Pharmacology Division of Ajou University) were cultivated in DMEM (Dulbecco's Modified Eagle's Medium) supplemented with 5% fetal bovine serum (Invitrogen, Carlsbad, Calif., USA), sou/Ml penicillin (Invitrogen, Carlsbad, Calif., USA), and 50 μg/Ml streptomycin (Invitrogen, Carlsbad, Calif., USA) under the atmosphere condition with 5% CO2 and 95% air at 37° C. The medium was replaced once a day, the cells were plate-cultured in a density according to the scale of each experiment.
BV-2 cells were plate-cultured in 96-well plate at the density of 5×10^4, the cell viability was measured according to a conventional MTT analysis method and lactate dehydrogenase (LDH) analysis method. The MTT analysis depends on the metabolism ability of mitochondria of living cell, and reflexes intracellular redox states. The cultured cells were treated with MTT a solution (final concentration: 1 mg/Ml) for 4 hours. Deep blue formazan crystal generated in the original cells was dissolved in a lysis buffer, and then, the absorbance was detected at 595 nm with microplate reader. The LDH activity released from the culture medium was detected, which was evaluated as a cell death index. The culture medium was added to a reagent (test, Sigma Chemical Co, St. Louis, Mo., USA) containing sodium lactate, NADH and sodium pyruvate, and then, the absorbance reduction by NADH at 340 nm was measured. The result was calculated assuming that the LDH activity in homogenate solution of the non-treated control is 100%.
[…] For microscope analysis, BV-2 cells were used in 6-well plate at the density of 5×10^5 cells/well, for MTT analysis, BV-2 cells were used in 96-well plate at the density of 5×10^4 cells/well.
The obtained prevention effects of KHG25967 compound on toxicity induced by beta-amyloid in BV-2 cells were FIGS. 1A and 1b.
For MTT analysis, BV-2 cells were used on 96-well plate in the density of 5×10^4 cells/well. The quantitative analysis results (unit: %) for the cell viability obtained by MTT analysis were shown in Table 2, wherein the values are represented by the average of three experiments per each concentration.

[1] abbreviates: BV-2, read-out: cell viability by MTT analysis, compound 500 nM for 24 hours after 50 μM beta-amyloid for 2 hours.
Setting [2] is: compound 500 nM for 24 hours after 50 μM beta-amyloid for 2 hours, read-out: cell viability by MTT analysis.

For the compound `Cc1cc2nc(NC(=O)NCC(=O)[O-])sc2cc1C.[K+]` [KHG26180, potassium 2-(3-(5,6-dimethylbenzo[d]thiazole-2-yl)ureido)acetate], the melting point amounted to 278 °C. Besides, the viability at 0.5 µM in the data set with BV-2 cells (setting [1]) stood at 62%.
As for `Cc1ccc2nc(NC(=O)NCC(=O)[O-])sc2c1.[K+]` [KHG26216, potassium 2-(3-(6-methylbenzo[d]thiazole-2-yl)ureido)acetate], the melting point stood at 236 °C. Moreover, the viability at 0.5 µM with BV-2 cells (setting [1]) amounted to 62%.
On the same counts, the results for `Cc1cccc2sc(NC(=O)NCC(=O)[O-])nc12.[K+]` [KHG26217, potassium 2-(3-(4-methylbenzo[d]thiazole-2-yl)ureido)acetate] are 264.4 °C and 49%.
The matching figures for `O=C([O-])CCNC(=O)Nc1nc2ccccc2s1.[K+]` [KHG26220, potassium 3-(3-benzo[d]thiazole-2-ylureido)propanoate]: 249 °C and 33%.
On the same counts, the results for `O=C([O-])CCCNC(=O)Nc1nc2ccccc2s1.[K+]` [KHG26221, potassium 4-(3-benzo[d]thiazole-2-ylureido)butanoate] are 241 °C and 44%.
For `O=C(NCCO)Nc1nc2ccccc2s1` [KHG26279, 1-(benzo[d]thiazole-2-yl)-3-(2-hydroxyethyl)urea], the melting point stood at 223 °C. In addition, in the data set with BV-2 cells (setting [2]), the viability at 0.5 µM is 36%.
The matching figures for `Cn1c(NC(=O)NCC(=O)O)nc2ccccc21` [KHG26280, 2-(3-(1-methyl-1H-benzo[d]imidazole-2-yl)ureido)acetic acid]: 200 °C and 33%.
The matching figures for `CCOC(=O)CNC(=S)Nc1nc2ccccc2n1C` [KHG26303, ethyl 2-(3-(1-methyl-1H-benzo[d]imidazole-2-yl)thioureido)acetate]: 185 °C and 48%.
On the same counts, the results for `CCOC(=O)CNC(=S)Nc1nc2ccccc2s1` [KHG26304, ethyl 2-(3-benzo[d]thiazole-2-ylthioureido)acetate] are 204 °C and 41%.
`CCOC(=O)CNC(=S)Nc1nc2ccc(C)cc2s1` [KHG26305, ethyl 2-(3-(6-methylbenzo[d]thiazole-2-yl)thioureido)acetate] showed a melting point of 290.8 °C. In addition, the viability at 0.5 µM in the data set with BV-2 cells (setting [2]) was found to be 37%.
On the same counts, the results for `CCOC(=O)CNC(=S)Nc1nc2c(C)cccc2s1` [KHG26306, ethyl 2-(3-(4-methylbenzo[d]thiazole-2-yl)thioureido)acetate] are 219 °C and 62%.
The matching figures for `CCOC(=O)CNC(=S)Nc1nc2cc(C)c(C)cc2s1` [KHG26307, ethyl 2-(3-(5,6-dimethylbenzo[d]thiazole-2-yl)thioureido)acetate]: 255 °C and 48%.
The matching figures for `CCOC(=O)CNC(=S)Nc1nc2ccc(OC)cc2s1` [KHG26308, ethyl 2-(3-(6-methoxybenzo[d]thiazole-2-yl)thioureido)acetate]: 324 °C and 44%.
The compound `CCOC(=O)CNC(=S)Nc1nc2ccc(OCC)cc2s1` [KHG26309, ethyl 2-(3-(6-ethoxybenzo[d]thiazole-2-yl)thioureido)acetate] registered a melting point of 183 °C. Besides, the viability at 0.5 µM with BV-2 cells (setting [2]) came out at 65%.
On the same counts, the results for `CCOC(=O)CNC(=S)Nc1nc2ccc(F)cc2s1` [KHG26310, ethyl 2-(3-(6-fluorobenzo[d]thiazole-2-yl)thioureido)acetate] are 160 °C and 30%.
On the same counts, the results for `CCOC(=O)CNC(=S)Nc1nc2ccc(Cl)cc2s1` [KHG26311, ethyl 2-(3-(6-chlorobenzo[d]thiazole-2-yl)thioureido)acetate] are 184 °C and 67%.
The matching figures for `CCOC(=O)CNC(=S)Nc1nc2c(Cl)cccc2s1` [KHG26312, ethyl 2-(3-(4-chlorobenzo[d]thiazole-2-yl)thioureido)acetate]: 198 °C and 55%.
Compound `O=C(O)CNC(=S)Nc1nc2ccccc2s1` [KHG26316, 2-(3-benzo[d]thiazole-2-ylthioureido)acetic acid] showed a melting point of 200 °C. In the data set with BV-2 cells (setting [2]), the viability at 0.5 µM was 57%.
With `Cn1c(NC(=S)NCC(=O)O)nc2ccccc21` [KHG26334, 2-(3-(1-methyl-1H-benzo[d]imidazole-2-yl)thioureido)acetic acid], the melting point is 172 °C. Besides, the viability at 0.5 µM in the data set with BV-2 cells (setting [2]) is 75%.
As for `Cc1cc2nc(NC(=S)NCC(=O)O)sc2cc1C` [KHG26335, 2-(3-(5,6-dimethylbenzo[d]thiazole-2-yl)thioureido)acetic acid], the melting point came to 212 °C. In addition, the viability at 0.5 µM in the data set with BV-2 cells (setting [2]) amounted to 81%.
The matching figures for `CCOc1ccc2nc(NC(=S)NCC(=O)O)sc2c1` [KHG26336, 2-(3-(6-ethoxybenzo[d]thiazole-2-yl)thioureido)acetic acid]: 200 °C and 67%.
The matching figures for `Cc1cccc2sc(NC(=S)NCC(=O)O)nc12` [KHG26340, 2-(3-(4-methylbenzo[d]thiazole-2-yl)thioureido)acetic acid]: 214 °C and 78%.
With `O=C(O)CNC(=S)Nc1nc2ccc(Cl)cc2s1` [KHG26341, 2-(3-(6-chlorobenzo[d]thiazole-2-yl)thioureido)acetic acid], the melting point came to 193 °C. In the data set with BV-2 cells (setting [2]), the viability at 0.5 µM came out at 67%.
The matching figures for `COCCNC(=O)Nc1nc2ccccc2s1` [KHG26344, 1-(benzo[d]thiazole-2-yl)-3-(2-methoxyethyl)urea]: 257 °C and 58%.
On the same counts, the results for `O=C(NCc1nn[nH]n1)Nc1nc2ccccc2s1` [KHG26345] are 249 °C and 63%.
